Laboratory results: PMC8963580, “Biophysical methods in early drug discovery” (ADMET & DMPK, 2019)

Experiments:
[1] = molecular target: T1, 15N-labeled NAD binding domain of PHGDH (Homo sapiens, UniProt O43175); assay: 2D NMR binding assay (1H15N-TROSY-HSQC chemical shift titration); details: read-out: Kd (chemical shift change versus compound concentration)
T1 sequence (O43175 93-298 limits assumed): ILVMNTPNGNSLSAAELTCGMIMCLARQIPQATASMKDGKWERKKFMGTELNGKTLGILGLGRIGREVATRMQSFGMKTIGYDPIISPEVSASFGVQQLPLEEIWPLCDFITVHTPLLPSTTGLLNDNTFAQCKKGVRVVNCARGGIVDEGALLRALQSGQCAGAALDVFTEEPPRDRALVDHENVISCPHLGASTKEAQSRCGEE
From the text: The enzyme 3-phosphohydroxyglycerate dehydrogenase (PHGDH) utilises oxidised ninotinamide dinucleotide (NAD+) and catalyses the conversion of 3-phosphohydroxyglycerate to 3-phosphohydroxypyruvate in humans. The conversion of 3-phosphohydroxyglycerate to 3-phosphohydroxypyruvate is the first, and rate-limiting step, in synthesis of the amino acid serine. Studies have linked PHGDH to the in vivo tumourigenesis in aggressive breast tumours and functional genomics reveal that the serine synthesis pathway is essential in breast cancer. Thus, the druggability of the target was explored with small molecules. To this end a fragment screen of 384 fragments was undertaken using crystal cocktail soaking (mixtures of 4) against the NAD binding domain of PHGDH and 34 hits were identified. The binding affinities of these hits were determined in a 2D NMR binding assay using 15N-labeled NAD binding domain, Figure 6a. […] A simple analogue of an initial crystallography hit (compound 1), the 5-fluoroindole-2-carboxamide (compound 2) bound at a resolution of 1.95 Å in the adenine pocket of the NAD binding site (Figure 6b). The indole NH forms a water-bridged hydrogen bond network with Ser-211, and the 5-fluoro substituent fits nicely into a lipophilic cleft in the binding pocket. […]

PHGDH = molecular target: T2, PHGDH (Homo sapiens, UniProt O43175); assay: Affinity for PHGDH during fragment optimisation (method not given); format: binding
T2 sequence (O43175 1-533): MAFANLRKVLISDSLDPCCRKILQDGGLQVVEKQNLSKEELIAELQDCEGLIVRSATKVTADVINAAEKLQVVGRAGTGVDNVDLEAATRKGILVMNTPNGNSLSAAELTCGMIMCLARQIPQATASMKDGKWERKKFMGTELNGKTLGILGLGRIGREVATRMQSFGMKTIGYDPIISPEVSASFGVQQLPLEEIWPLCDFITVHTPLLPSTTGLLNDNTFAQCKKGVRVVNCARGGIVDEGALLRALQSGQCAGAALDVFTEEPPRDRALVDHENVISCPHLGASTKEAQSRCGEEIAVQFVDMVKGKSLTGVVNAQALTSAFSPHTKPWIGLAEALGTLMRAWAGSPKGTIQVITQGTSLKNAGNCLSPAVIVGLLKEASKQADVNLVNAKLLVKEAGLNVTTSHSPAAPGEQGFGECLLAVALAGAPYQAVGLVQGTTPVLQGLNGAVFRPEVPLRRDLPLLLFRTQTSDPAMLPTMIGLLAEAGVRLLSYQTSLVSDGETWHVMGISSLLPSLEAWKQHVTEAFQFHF
From the text: The enzyme 3-phosphohydroxyglycerate dehydrogenase (PHGDH) utilises oxidised ninotinamide dinucleotide (NAD+) and catalyses the conversion of 3-phosphohydroxyglycerate to 3-phosphohydroxypyruvate in humans. The conversion of 3-phosphohydroxyglycerate to 3-phosphohydroxypyruvate is the first, and rate-limiting step, in synthesis of the amino acid serine. Studies have linked PHGDH to the in vivo tumourigenesis in aggressive breast tumours and functional genomics reveal that the serine synthesis pathway is essential in breast cancer. Thus, the druggability of the target was explored with small molecules. […] The binding affinities of these hits were determined in a 2D NMR binding assay using 15N-labeled NAD binding domain, Figure 6a. […]
Considering this knowledge, a 1D NMR competition assay with NAD+ as the reference compound was developed. […] It is noteworthy that fragments and many of the synthesised analogues had no measurable activity in the human PHGDH protein NAD fluorescence intensity biochemical assay. Whilst the biophysical methods allowed a wide dynamic range of weak mM to sub μM affinities be determined, the biochemical assay could only be used to provide affinities that could drive SAR once those affinities were sub micromolar. […]

InhA.NADH = InhA.NADH (Mycobacterium tuberculosis, UniProt P9WGR1); assay: SPR profiling of DEL screening hits, in the presence of 100 μM NADH; format: binding
InhA.NAD+ = InhA.NAD+ (Mycobacterium tuberculosis, UniProt P9WGR1); assay: SPR profiling of DEL screening hits, in the presence of 2 mM NAD+; format: binding
Apo InhA = Apo InhA (Mycobacterium tuberculosis, UniProt P9WGR1); assay: SPR profiling of DEL screening hits, compound injected alone; format: binding
[2] = molecular target: T3, NAD binding domain of PHGDH (Homo sapiens, UniProt O43175); assay: SPR titration, steady state fit
T3 sequence (O43175 93-298 limits assumed): T1 sequence (O43175 93-298 limits assumed)

full length PHGDH [3] = molecular target: T4, full length PHGDH (Homo sapiens, UniProt O43175); assay: ITC titration; format: binding
T4 sequence (O43175 1-533): T2 sequence (O43175 1-533)

full length PHGDH [4] = molecular target: T4, full length PHGDH; assay: SPR titration, steady state fit; format: binding
From the text: Considering this knowledge, a 1D NMR competition assay with NAD+ as the reference compound was developed. This screen employed the more physiologically relevant full length PHGDH protein, to provide continuity for affinity measurement during the subsequent analoguing phase. It is noteworthy that fragments and many of the synthesised analogues had no measurable activity in the human PHGDH protein NAD fluorescence intensity biochemical assay. Whilst the biophysical methods allowed a wide dynamic range of weak mM to sub μM affinities be determined, the biochemical assay could only be used to provide affinities that could drive SAR once those affinities were sub micromolar. In summary, a fragment crystal cocktail screen, supported with biophysical affinity measurements, provided the first known small molecule known nanomolar inhibitors of PHGDH and valuable tools for interrogating the biology of this target.
(b) SPR titration data for NADH binding to full length PHGDH, Kd = 0.4 ± 0.03 μM determined from a steady state fit, with the kinetic fit curve shown in the inset. […] No label is printed directly beside the Kd values; 'Spot 1' and 'Spot 2' are printed at the top of the plots.

Sequence of InhA.NADH (P9WGR1 whole entry, looked up): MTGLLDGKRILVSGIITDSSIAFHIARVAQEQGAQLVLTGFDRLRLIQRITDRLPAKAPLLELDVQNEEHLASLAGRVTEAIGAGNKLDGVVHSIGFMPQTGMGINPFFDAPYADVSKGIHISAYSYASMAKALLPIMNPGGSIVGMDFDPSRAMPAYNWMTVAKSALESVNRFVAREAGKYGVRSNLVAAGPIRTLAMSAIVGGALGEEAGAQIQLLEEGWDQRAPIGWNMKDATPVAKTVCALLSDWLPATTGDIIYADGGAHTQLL
Sequence of InhA.NAD+ (P9WGR1 whole entry, looked up): as above
Sequence of Apo InhA (P9WGR1 whole entry, looked up, the tested form may be a part): as the sequence (P9WGR1 whole entry, looked up) above

SMILES | Kd (InhA.NADH) [µM] | Kd (InhA.NAD+) [µM] | Kd (Apo InhA) [µM] | further results
NC(=O)c1cc2cc(F)ccc2[nH]1 [Compound 2, 5-fluoroindole-2-carboxamide] | – | – | – | Kd [1]: 980 ± 60 µM
COc1cc2[nH]c(C(=O)N[C@H](CO)c3ccccc3)cc2cc1Cl [Compound 4] | – | – | – | affinity (PHGDH; method not stated): single digit
O=C(O)c1ccc([C@@H](CO)NC(=O)c2cc3cc(Cl)ccc3[nH]2)cc1 [Compound 5] | – | – | – | fold improvement in affinity (PHGDH; relative to compound 4): 10 fold
Cc1c(CC(=O)NC2CCC(CC(=O)N3CCN(CC(=O)CN)C(=O)C3Cc3ccccc3)CC2)sc2ccccc12 (centres unmarked) [Compound 6] | 0.3 ± 0.2 | 13.4 ± 4.3 | > 100 | –
CNC(=O)CN(Cc1ccc(C)cc1)C(=O)C[C@H]1CC[C@H](CC(=O)c2nnn(Cc3ccccc3)c2C)CC1 [Compound 7] | 0.09 ± 0.06 | 46.7 ± 11.6 | > 100 | –
CNC(=O)c1cnc(NC2CCN(c3ccccn3)CC2)c(NCc2ccc(F)c(Oc3ccccc3)c2)c1 [Compound 8] | 0.3 ± 0.1 | > 100 | > 100 | –
CNC(=O)CN(C(=O)Cc1ccc(-n2cccn2)cc1)C1CCN(c2ccccn2)CC1 [Compound 9] | 36.8 ± 3.3 | > 100 | > 100 | –
CNC(=O)C1CC(NC(=O)C(NC(=O)c2ccc(Cn3cccn3)cc2)[C@@H](C)OC(C)(C)C)CN1C(=O)c1ccccc1 (some centres unmarked) [Compound 10] | 0.06 ± 0.03 | 49 ± 2.9 | > 100 | –
CCCc1cc(C(=O)N2CCC(C(=O)NC(CC(=O)NC)c3cccc(C(F)(F)F)c3)(c3ccc(Br)cc3)CC2)n(C)n1 (centres unmarked) [Compound 11] | 5 ± 1.2 | 0.3 ± 0.1 | 12.4 ± 1.4 | –
CNC(=O)C1CCCN1C(=O)CC1CCC(NC(=O)C2CC(c3ccccc3)CN2)CC1 (centres unmarked) [Compound 12] | 6.3 ± 2.6 | > 100 | > 100 | –
NC(=O)C1=CN([C@@H]2O[C@H](COP(=O)(O)OP(=O)(O)OC[C@H]3O[C@@H](n4cnc5c(N)ncnc54)[C@H](O)[C@@H]3O)[C@@H](O)[C@H]2O)C=CC1 [NADH] | – | – | – | Kd [2]: 6.7 ± 0.5 µM; Kd (full length PHGDH [3]): 0.33 ± 0.08 µM; N (stoichiometry) (full length PHGDH [3]): 0.78 ± 0.01; Kd (full length PHGDH [4]; SPR steady state fit, full length PHGDH): 0.4 ± 0.03 µM; fold tighter binding to the full-length protein than to the NAD binding domain (full length PHGDH [4]; combination of ITC and SPR measurements): approximately 20 fold
